The test concerns the target Steroidogenic factor 1 (Homo sapiens) (UniProt Q13285). The experiment in a line: dose-dependent inverse agonism at SF1 – cell-based, luminescence, dose response, selectivity assay for LRH-1 inverse agonist project, late-stage follow-up (AID 651977). As to conditions: SF1 cell-based luciferase reporter.

The source made the active and inactive calls. How the calls were made is not given here.

Sequence of Steroidogenic factor 1 (Homo sapiens) (Q13285 whole entry, looked up): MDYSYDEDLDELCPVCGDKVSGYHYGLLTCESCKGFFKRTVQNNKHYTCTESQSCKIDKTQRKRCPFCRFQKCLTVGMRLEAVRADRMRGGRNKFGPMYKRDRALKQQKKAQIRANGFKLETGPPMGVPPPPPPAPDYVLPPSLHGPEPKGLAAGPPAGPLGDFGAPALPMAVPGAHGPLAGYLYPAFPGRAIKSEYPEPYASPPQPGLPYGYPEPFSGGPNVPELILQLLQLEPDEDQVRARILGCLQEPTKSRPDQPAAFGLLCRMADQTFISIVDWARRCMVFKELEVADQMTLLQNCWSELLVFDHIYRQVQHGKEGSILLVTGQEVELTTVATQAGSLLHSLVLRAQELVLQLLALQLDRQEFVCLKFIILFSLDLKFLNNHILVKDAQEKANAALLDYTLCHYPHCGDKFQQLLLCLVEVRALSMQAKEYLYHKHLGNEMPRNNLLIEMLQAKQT

As for `CCOc1ccc(NC(=O)CSc2nncc(=O)n2N)cc1`, the IC50 was > 35.9 µM (inactive).

Regarding `O=C(COC(=O)CCN1C(=O)C2CC=CCC2C1=O)NCCc1ccc(F)cc1` (stereo not drawn), the IC50 is > 35.9 µM (inactive).

`CCn1c(SCC(=O)Nc2ccc(Cl)cc2)nnc1C1CC1`: the IC50 was > 35.9 µM (inactive).

For `CCc1c(C)nc(SCC(=O)Nc2ccc3c(c2)OCCO3)[nH]c1=O`, the concentration for half-maximal inhibition (IC50) was 7.83 µM.

With `CC(=O)c1ccc(NC(=O)C(C)O/N=C(\N)c2ccccc2)cc1` (stereo not drawn), the IC50 entry is “inactive”.

Turning to `O=C(COC(=O)c1ccc[n+]([O-])c1)Nc1ccc([N+](=O)[O-])cc1Cl`, the IC50 is > 35.9 µM (inactive).

On to `CCOc1ccc(NC(=O)COC(=O)CC2CCCCC2)cc1`, for which the IC50 is > 35.9 µM (inactive).

For `COc1ccc(CCNC(=O)COC(=O)c2cccn2C)cc1`, the IC50 is > 35.9 µM (inactive).

As for `CCOc1ccc(OCCN2C(=O)NC(Cc3c[nH]c4ccccc34)C2=O)cc1` (stereo not drawn), the IC50 entry is “inactive”.

Take `COc1ccc(NS(=O)(=O)c2ccc(OCC(=O)N3CCN(C)CC3)cc2)cc1Cl`: the IC50 was 9.99 µM.

With `O=C(COC(=O)c1ccc(=O)n(Cc2ccccc2)n1)Nc1ccc2c(c1)OCCO2`, the IC50 was > 35.9 µM (inactive).

Turning to `CCCc1nnc(SCC(=O)Nc2ccc(C(=O)OCC)cc2)o1`, the IC50 was > 35.9 µM (inactive).

As for `O=C(NCC1CCCO1)c1ccc(NC(=O)c2cccc([N+](=O)[O-])c2)cc1` (stereo not drawn), the IC50 is 1.02 µM.

With `CCCc1cc(=O)oc2c(C)c(OCC(=O)NCCN3CCOCC3)ccc12`, the IC50 was 5.64 µM.

In the case of `CCOc1ccc(NC(=O)CN2CCN(CC(=O)Nc3ccc(OC)cc3)CC2)cc1`, the IC50 was > 35.9 µM (inactive).

As to `Cc1cc(Br)ccc1NC(=O)CN1C(=O)C2CC=CCC2C1=O` (stereo not drawn), the IC50 is 0.351 µM.

Regarding `Cc1cccc(NC(=O)COC(=O)CN2C(=O)c3ccccc3C2=O)c1C`, the IC50 is > 35.9 µM (inactive).

As for `Cc1cc(C)c2nc(NC(=O)c3ccc([N+](=O)[O-])o3)sc2c1`, the IC50 was > 35.9 µM (inactive).

Consider `COc1ccc(NC(=O)CSc2nc(N)c(-c3ccccc3)c(=O)[nH]2)cc1`, for which the 50% inhibitory concentration (IC50) is 9.92 µM.

On to `CCCc1cc(=O)oc2c(C)c(OCC(=O)NCCCn3ccnc3)ccc12`, for which the concentration for half-maximal inhibition (IC50) was 6.68 µM.

As for `O=C(CSc1nc(=O)n2cc(Cl)ccc2n1)Nc1ccc2c(c1)OCCO2`, the IC50 result is “inactive”.

`O=c1[nH]c(Nc2ccc3c(c2)OCCO3)nnc1Cc1ccccc1`: the IC50 is > 12 µM (inactive).

For the compound `COCC(=O)NC1CCN(CC(=O)Nc2ccc(OC)cc2[N+](=O)[O-])CC1`, the IC50 is > 35.9 µM (inactive).

In the case of `Cc1cc(C)c2sc(NC(=O)c3ccc([N+](=O)[O-])o3)nc2c1`, the IC50 was > 35.9 µM (inactive).

Take `COc1ccc(NC(=O)COC(=O)c2c(-c3ccccc3)noc2C)cc1`: the IC50 is 3.19 µM.

Regarding `COc1ccc(NC(=O)CN2C(=O)NC3(CCCC3)C2=O)cc1`, the IC50 was > 35.9 µM (inactive).

`COc1ccc(NC(=O)CSc2sc3c(O)cc(=O)[nH]c3c2C#N)c(OC)c1`: the IC50 was > 35.9 µM (inactive).

`Cc1nn(CC(=O)Nc2ccc3c(c2)OCCO3)c(C)c1[N+](=O)[O-]`: the IC50 is > 35.9 µM (inactive).

With `CCOc1ccc(OCCC(=O)OCC(=O)Nc2ccc3c(c2)OCCO3)cc1`, the IC50 was > 35.9 µM (inactive).

Turning to `COc1ccc(NC(=O)COC(=O)c2cc(S(=O)(=O)N3CCCC3)ccc2O)cc1`, the IC50 was > 35.9 µM (inactive).

Turning to `CCOc1ccc(NC(=O)COC(=O)COc2cccc3c2OC(C)(C)C3)cc1`, the IC50 is > 35.9 µM (inactive).

With `Cc1ccc(-c2csc(NC(=O)c3ccc([N+](=O)[O-])o3)n2)cc1`, the IC50 was > 35.9 µM (inactive).

With `COC(=O)c1ccc(NC(=O)CSc2nc3ncccc3[nH]2)cc1`, the IC50 was > 35.9 µM (inactive).

As for `COc1ccc(CCNC(=O)CSc2ccc(NC(C)=O)cc2)cc1OC`, the IC50 is 8.79 µM.

On to `CCc1cc(=O)[nH]c(SCC(=O)Nc2ccc3c(c2)OCCO3)n1`, for which the IC50 is > 35.9 µM (inactive).

As for `CC1SC(C)C(=O)N(CC(=O)Nc2ccc3c(c2)OCO3)C1=O` (stereo not drawn), the IC50 was > 35.9 µM (inactive).

For the compound `CC(=O)Nc1ncc(Cc2cc(Cl)ccc2Cl)s1`, the IC50 entry is “inactive”.

As for `Cc1ccc(NC(=O)CSc2sc3c(O)cc(=O)[nH]c3c2C#N)c(F)c1`, the IC50 was > 35.9 µM (inactive).

Take `CCc1cc(=O)oc2c(C)c(OCC(=O)NCCN3CCOCC3)ccc12`: the IC50 entry is “inactive”.

On to `COc1ccc(CCNC(=O)COC(=O)Cc2ccccc2[N+](=O)[O-])cc1`, for which the IC50 was > 12 µM (inactive).

Regarding `O=C(Nc1ccccc1)c1oc2ccccc2c1NC(=O)C1CC1`, the IC50 result is “inactive”.

For `O=C(COc1ccc2c3c(c(=O)oc2c1)CCC3)NCc1ccncc1`, the IC50 is > 35.9 µM (inactive).

Regarding `Cc1ccc(NC(=O)CSc2nc3[nH]c(=O)cc(O)c3s2)c(Br)c1`, the IC50 was > 35.9 µM (inactive).

As to `Cc1sc(NC(=O)C(C)C)c(C(=O)Nc2ccccc2)c1C`, the IC50 was 9.22 µM.

`Cc1ccc(NC(=O)COC(=O)c2cc(=O)c3ccccc3o2)c(Br)c1`: the IC50 is > 35.9 µM (inactive).

With `O=C(Nc1ccc(Br)cn1)c1ccc([N+](=O)[O-])o1`, the IC50 was > 35.9 µM (inactive).

Consider `COc1ccc(-n2c(N)c(C(=O)NCc3cccnc3)sc2=S)cc1`, for which the IC50 is > 35.9 µM (inactive).

Take `NC(=O)C1CCN(C(=O)COc2ccc3c4c(c(=O)oc3c2)CCCC4)CC1`: the IC50 is > 35.9 µM (inactive).

`COc1ccc(CCNC(=O)CSc2nc3[nH]c(=O)cc(O)c3s2)cc1`: the IC50 is > 35.9 µM (inactive).

As to `CCCc1cc(=O)oc2cc(OCC(=O)NCCc3ccc(S(N)(=O)=O)cc3)ccc12`, the IC50 result is “inactive”.

Regarding `O=C(OCC(=O)N1CCN(C(=O)COC(=O)c2ccc(O)cc2O)CC1)c1ccc(O)cc1O`, the IC50 is 3.55 µM.

On to `COc1ccc(NC(=O)CSc2ccc3c(c2)OCCO3)cc1`, for which the IC50 is > 35.9 µM (inactive).

As for `O=C(NCc1ccco1)c1nn(-c2ccccc2)c(=O)c2ccccc12`, the IC50 is > 35.9 µM (inactive).

With `O=C(Nc1nc2c(Cl)cccc2s1)c1ccc([N+](=O)[O-])o1`, the IC50 was > 12 µM (inactive).

`Cc1ccc2cccc(OCC(=O)NCCC3=CCCCC3)c2n1`: the concentration for half-maximal inhibition (IC50) was 2.22 µM.

As for `CCCN(CC(=O)Nc1ccc(C(C)=O)cc1)CC(=O)Nc1ccccc1C`, the IC50 entry was “inactive”.

For the compound `O=C(CSc1nnc(CNC(=O)c2ccccc2F)o1)Nc1ccc2c(c1)OCCO2`, the IC50 is > 35.9 µM (inactive).

In the case of `CCOc1ccc(NC(=O)COC(=O)c2ccc3c(c2)OCCO3)cc1`, the IC50 was > 12 µM (inactive).

As to `Cc1ccn2c(=O)nc(SCC(=O)Nc3ccc4c(c3)OCCO4)nc2c1`, the IC50 is > 35.9 µM (inactive).

Turning to `Cc1cc(OCC(=O)Nc2nccs2)c2c(C)cc(=O)oc2c1`, the IC50 is > 35.9 µM (inactive).

With `COCCn1c(C)cc(/C=C(\C#N)C(=O)OCC(=O)Nc2ccc(S(N)(=O)=O)cc2)c1C`, the IC50 is > 35.9 µM (inactive).

As to `Cc1ccc(NC(=O)COC(=O)C(NS(=O)(=O)c2ccc(Cl)cc2)C(C)O)c(Br)c1` (stereo not drawn), the IC50 was > 35.9 µM (inactive).

With `CC(=O)c1ccc(OC(C)C(=O)OCC(=O)NCCc2ccccc2)cc1` (stereo not drawn), the IC50 was > 35.9 µM (inactive).

On to `CCCc1cc(=O)oc2cc(C)cc(OCC(=O)NC3CC3)c12`, for which the IC50 was 2.67 µM.

On to `COC(=O)c1ccc(NC(=O)COc2cccc(-n3cnnn3)c2)cc1`, for which the IC50 is > 12 µM (inactive).

As for `COc1ccc(CCNC(=O)COC(=O)C23CC4CC(CC(C4)C2)C3)cc1`, the IC50 is 4.42 µM.

For the compound `CCOc1ccc(NC(=O)CSc2nnc(C(C)C)n2CC)cc1`, the IC50 was > 35.9 µM (inactive).

For the compound `O=C(COc1ccc2c3c(c(=O)oc2c1)CCCC3)NCc1ccccn1`, the IC50 is > 35.9 µM (inactive).

For `N#CCSc1ccccc1NC(=O)CN1C(=O)C2CC=CCC2C1=O` (stereo not drawn), the IC50 was > 35.9 µM (inactive).

On to `COC(=O)c1ccc(NC(=O)CSc2nncn2-c2cccnc2)cc1`, for which the IC50 was > 35.9 µM (inactive).

For `COc1ccccc1Oc1nnnn1-c1ccc(C(N)=O)cc1`, the IC50 result was “inactive”.

As for `COc1ccc(CCNC(=O)CSc2nn3c(=O)c(C)nnc3s2)cc1OC`, the IC50 is 5.7 µM.

Take `COc1ccc(C2(C)NC(=O)N(CC(=O)NCCC3=CCCCC3)C2=O)cc1OC` (stereo not drawn): the IC50 is > 12 µM (inactive).

With `COc1ccc(CCNC(=O)COC(=O)c2cc(Cl)nc(Cl)c2)cc1`, the IC50 was > 35.9 µM (inactive).

Consider `CCOc1ccc(NC(=O)CSc2nc3[nH]ncc3c(=O)[nH]2)cc1`, for which the IC50 was > 35.9 µM (inactive).

`COC(=O)c1ccc(NC(=O)CN2CCN(c3ccc(Cl)cc3)CC2)cc1`: the IC50 is > 35.9 µM (inactive).

Regarding `CCCc1cc(=O)oc2cc(OCC(=O)NCc3ccccn3)ccc12`, the IC50 is > 35.9 µM (inactive).

In the case of `Cc1cccc(NC(=O)COC(=O)Cc2cccs2)c1C`, the IC50 is > 35.9 µM (inactive).

In the case of `CC(=O)Nc1ccc(N=c2cc([N+](=O)[O-])cc(Cl)n2O)cc1`, the IC50 was > 12 µM (inactive).

In the case of `Cc1ccc(NC(=O)COC(=O)C(NS(=O)(=O)c2ccc(Cl)cc2)C(C)O)cc1C` (stereo not drawn), the half-inhibitory concentration (IC50) is 2.28 µM.

`Cc1cc(=O)oc2c(C)c(OCC(=O)NC3CC(C)(C)NC(C)(C)C3)ccc12`: the IC50 is > 35.9 µM (inactive).

`O=C1CCCN2N=C(SCC(=O)Nc3ccc(Br)cc3)SC2=N1`: the IC50 was > 35.9 µM (inactive).

For `COc1ccc(NC(=O)CSc2nnc3ccc(-c4cccnc4)nn23)cc1OC`, the IC50 is 1.59 µM.

On to `COC(=O)c1ccc(NC(=O)CSc2nn3c(=O)c(C)nnc3s2)cc1`, for which the IC50 was > 35.9 µM (inactive).

Regarding `Cc1cc(Br)ccc1NC(=O)CSc1nnc(CN2CCOCC2)n1C`, the IC50 is > 35.9 µM (inactive).

As for `COC(=O)c1ccc(NC(=O)CSc2ccc(-c3ccccn3)nn2)cc1`, the IC50 was > 35.9 µM (inactive).

For `O=C(CSc1nnc(CNC(=O)c2c(F)cccc2F)o1)Nc1ccc2c(c1)OCCO2`, the IC50 entry was “inactive”.

For the compound `COC(=O)c1ccc(CNC(=O)COC(=O)c2cc(Cl)nc(Cl)c2)cc1`, the IC50 entry is “inactive”.

(Values after PubChem BioAssay AID651977 (The Scripps Research Institute Molecular Screening Center, 2013).)
